From ChEMBL document CHEMBL1201862, “PubChem BioAssay data set” (2004)
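All cell lines were grown in 96-well plates and treated with compound for 48 hours. GI50: concentration for 50% inhibition of growth.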 Active and inactive are the calls of the source. No stated cut-off is given here; in the data, active = GI50 up to about 1.1 µM and inactive = higher.

Experiments:
Test in all cases: NCI tumour cell line growth inhibition, 48 h
A549 = test system: A549
ACHN = test system: ACHN
EKVX = test system: EKVX
HCT-15 = test system: HCT-15
HT-29 = test system: HT-29
IGROV-1 = test system: IGROV-1
Malme-3M = test system: Malme-3M
OVCAR-4 = test system: OVCAR-4
SK-MEL-2 = test system: SK-MEL-2
SNB-19 = test system: SNB-19
SNB-75 = test system: SNB-75
SW-620 = test system: SW-620
OVCAR-3 = test system: OVCAR-3
SF-295 = test system: SF-295
SF-539 = test system: SF-539

Compound | GI50 (A549) | GI50 (ACHN) | GI50 (EKVX) | GI50 (HCT-15) [µM] | GI50 (HT-29) | GI50 (IGROV-1) | GI50 (Malme-3M) | GI50 (OVCAR-4) | GI50 (SK-MEL-2) | GI50 (SNB-19) | GI50 (SNB-75) | GI50 (SW-620) | GI50 (OVCAR-3) | GI50 (SF-295) | GI50 (SF-539)
CC1(C)NC(=O)N(CCCCCCN2C(=O)NC(C)(C)C2=O)C1=O | > 100 µM (inactive) | > 100 µM (inactive) | > 100 µM (inactive) | > 100 | > 100 µM (inactive) | > 100 µM (inactive) | > 100 µM (inactive) | > 100 µM (inactive) | > 100 µM (inactive) | 97.9 µM (inactive) | > 100 µM (inactive) | > 100 µM (inactive) | – | – | –
C=C(C)C1CC2C(C)=C(OC(C)=O)C1n1c(=O)c3cc4ccccc4cc3c(=O)n12 (stereo unspecified) | > 72.3 µM (inactive) | > 82.8 µM (inactive) | 64.1 µM (inactive) | 57.5 | > 80.9 µM (inactive) | > 77.1 µM (inactive) | > 89.3 µM (inactive) | 73.3 µM (inactive) | > 100 µM (inactive) | > 100 µM (inactive) | 42 µM (inactive) | > 71.4 µM (inactive) | 46.9 µM (inactive) | > 71.6 µM (inactive) | > 100 µM (inactive)
CCOC(=O)C1Cc2ccc3c4c(ccc(c24)C1)CC(C(=O)OCC)C3 | > 100 µM (inactive) | > 100 µM (inactive) | > 100 µM (inactive) | > 100 | > 100 µM (inactive) | > 100 µM (inactive) | > 100 µM (inactive) | – | > 100 µM (inactive) | > 100 µM (inactive) | > 100 µM (inactive) | > 100 µM (inactive) | > 100 µM (inactive) | > 100 µM (inactive) | > 100 µM (inactive)
O=C(CO)CC(=O)C(=O)Nc1ccccc1 | > 100 µM (inactive) | > 100 µM (inactive) | > 100 µM (inactive) | > 100 | > 100 µM (inactive) | > 100 µM (inactive) | > 100 µM (inactive) | > 100 µM (inactive) | > 100 µM (inactive) | > 100 µM (inactive) | – | > 100 µM (inactive) | > 100 µM (inactive) | > 100 µM (inactive) | > 100 µM (inactive)
CCCCCCCCCCCCCCCC(=O)OCC1OC(n2cc(F)c(=O)[nH]c2=O)C(NC(=O)OCc2ccccc2)C(O)C1O (stereo unspecified) | 18.9 µM (inactive) | 34.1 µM (inactive) | 22 µM (inactive) | 18.5 | 17.8 µM (inactive) | 20.9 µM (inactive) | 2.79 µM (inactive) | 20 µM (inactive) | 16 µM (inactive) | 16.8 µM (inactive) | 19.8 µM (inactive) | 26.9 µM (inactive) | 16.1 µM (inactive) | 16.9 µM (inactive) | 16.4 µM (inactive)
CCOC(=O)C1(C)CCC(C(=O)OC)C1=O (stereo unspecified) | > 100 µM (inactive) | > 100 µM (inactive) | > 100 µM (inactive) | 20.2 | 65.5 µM (inactive) | > 100 µM (inactive) | > 100 µM (inactive) | > 100 µM (inactive) | > 100 µM (inactive) | > 100 µM (inactive) | > 100 µM (inactive) | – | > 100 µM (inactive) | > 100 µM (inactive) | > 100 µM (inactive)
COc1cc(/C=C/C(=N\NC(=O)c2ccccc2)c2sc(Nc3ccc(Cl)c(Cl)c3)nc2C)ccc1O | 31.7 µM (inactive) | 26.8 µM (inactive) | 29.6 µM (inactive) | 31.9 | 28.9 µM (inactive) | 35.6 µM (inactive) | 29.4 µM (inactive) | 33.4 µM (inactive) | 26.2 µM (inactive) | 31.6 µM (inactive) | 33.3 µM (inactive) | 40.4 µM (inactive) | 30.3 µM (inactive) | 33.1 µM (inactive) | 40.8 µM (inactive)
O=c1/c(=C/c2ccc3c(c2)OCO3)sc2nnc(-c3ccco3)n12 | > 100 µM (inactive) | > 100 µM (inactive) | > 100 µM (inactive) | – | – | > 100 µM (inactive) | > 100 µM (inactive) | > 100 µM (inactive) | > 100 µM (inactive) | > 100 µM (inactive) | 28.2 µM (inactive) | > 100 µM (inactive) | > 100 µM (inactive) | 82 µM (inactive) | > 100 µM (inactive)
CSc1nc(C)cc(=O)n1C1OC(COC(C)=O)C(OC(C)=O)C(OC(C)=O)C1OC(C)=O (stereo unspecified) | > 100 µM (inactive) | > 100 µM (inactive) | > 100 µM (inactive) | > 100 | > 100 µM (inactive) | > 100 µM (inactive) | > 100 µM (inactive) | > 100 µM (inactive) | 53.3 µM (inactive) | > 100 µM (inactive) | 61.5 µM (inactive) | > 100 µM (inactive) | > 100 µM (inactive) | > 100 µM (inactive) | –
C=CCCC(O)c1cc(C)c(O)c(C)c1 (stereo unspecified) | > 100 µM (inactive) | > 100 µM (inactive) | > 100 µM (inactive) | > 100 | – | > 100 µM (inactive) | > 100 µM (inactive) | – | > 100 µM (inactive) | > 100 µM (inactive) | 60.1 µM (inactive) | > 100 µM (inactive) | > 100 µM (inactive) | > 100 µM (inactive) | > 100 µM (inactive)
C[C@]12CC=CC(=O)[C@@]1(C)CCC(=O)C2 | > 100 µM (inactive) | > 100 µM (inactive) | > 100 µM (inactive) | – | > 100 µM (inactive) | > 100 µM (inactive) | > 100 µM (inactive) | > 100 µM (inactive) | > 100 µM (inactive) | > 100 µM (inactive) | > 100 µM (inactive) | > 100 µM (inactive) | > 100 µM (inactive) | > 100 µM (inactive) | > 100 µM (inactive)
COc1ccc(C[P+]2(c3ccccc3)CCCCC2)cc1.O=[N+]([O-])c1ccc(C[P+]2(c3ccccc3)CCCCC2)cc1.[O-][Cl+3]([O-])([O-])[O-].[O-][Cl+3]([O-])([O-])[O-] | > 100 µM (inactive) | > 100 µM (inactive) | > 100 µM (inactive) | > 100 | 10 µM (inactive) | 47.6 µM (inactive) | 19.3 µM (inactive) | > 100 µM (inactive) | > 100 µM (inactive) | 89.7 µM (inactive) | > 100 µM (inactive) | 94.6 µM (inactive) | 41 µM (inactive) | > 100 µM (inactive) | > 100 µM (inactive)
Cc1nnc(N/N=C(/C(=O)C(C#N)c2ccc(Cl)cc2)C(C#N)c2ccc(Cl)cc2)n1N (stereo unspecified) | 20.1 µM (inactive) | 15.9 µM (inactive) | > 10 µM (inactive) | 19.7 | 20.4 µM (inactive) | – | 19.4 µM (inactive) | 18.1 µM (inactive) | 18.2 µM (inactive) | 14.6 µM (inactive) | 16.4 µM (inactive) | 18.8 µM (inactive) | 21.5 µM (inactive) | 15.7 µM (inactive) | –
O=[N+]([O-])c1cc(Cl)ccc1S(=O)(=O)c1ccc(Cl)cc1[N+](=O)[O-] | 25.4 µM (inactive) | 16.1 µM (inactive) | – | 17.3 | 16.8 µM (inactive) | 15.9 µM (inactive) | 13.5 µM (inactive) | 17.9 µM (inactive) | 18 µM (inactive) | 17.4 µM (inactive) | 15.7 µM (inactive) | 18.5 µM (inactive) | 17.3 µM (inactive) | 15.1 µM (inactive) | 18 µM (inactive)
O=C(CCC(=O)Nc1ccc(Cl)c(Cl)c1)CC(=O)c1ccc(F)cc1 | > 100 µM (inactive) | > 100 µM (inactive) | > 100 µM (inactive) | – | > 100 µM (inactive) | > 100 µM (inactive) | > 100 µM (inactive) | > 100 µM (inactive) | – | > 100 µM (inactive) | – | > 100 µM (inactive) | > 100 µM (inactive) | > 100 µM (inactive) | > 100 µM (inactive)
CCCCCCCCCC1CC(=O)Oc2cccc(O)c21 (stereo unspecified) | 11.5 µM (inactive) | 30.3 µM (inactive) | 40.7 µM (inactive) | 23.4 | 24.1 µM (inactive) | 20.9 µM (inactive) | 18.7 µM (inactive) | 33.7 µM (inactive) | 20.6 µM (inactive) | 3.7 µM (inactive) | 40 µM (inactive) | 29.2 µM (inactive) | 16.3 µM (inactive) | 11.6 µM (inactive) | 4.18 µM (inactive)
COc1cc2c(cc1O)CC13CCC(=O)N1CCc1cc(OC)c(O)c-2c13 (stereo unspecified) | > 68.1 µM (inactive) | > 68.1 µM (inactive) | > 68.1 µM (inactive) | > 68.1 | > 68.1 µM (inactive) | > 68.1 µM (inactive) | > 68.1 µM (inactive) | > 68.1 µM (inactive) | – | > 68.1 µM (inactive) | > 68.1 µM (inactive) | > 68.1 µM (inactive) | > 68.1 µM (inactive) | > 68.1 µM (inactive) | > 68.1 µM (inactive)
O=C1CCC(O)=C1O | > 100 µM (inactive) | > 100 µM (inactive) | > 100 µM (inactive) | > 100 | > 100 µM (inactive) | > 100 µM (inactive) | > 100 µM (inactive) | > 100 µM (inactive) | > 100 µM (inactive) | > 100 µM (inactive) | > 100 µM (inactive) | > 100 µM (inactive) | > 100 µM (inactive) | > 100 µM (inactive) | > 100 µM (inactive)
NCCOCCOCC(=O)O | > 100 µM (inactive) | > 100 µM (inactive) | > 100 µM (inactive) | > 100 | > 100 µM (inactive) | > 100 µM (inactive) | > 100 µM (inactive) | > 100 µM (inactive) | > 100 µM (inactive) | > 100 µM (inactive) | > 100 µM (inactive) | > 100 µM (inactive) | > 100 µM (inactive) | > 100 µM (inactive) | > 100 µM (inactive)
